Read-outs that look alike come from different tables or passages of the source.
Tests used:
Type in all cases: biochemical
MMP-10h = MMP-10h (Homo sapiens (Human), UniProt P09238); assay: Inhibition constant (Ki) on MMP-10h; conditions: human MMP-10
MMP-14h = MMP-14h (Homo sapiens (Human), UniProt P50281); assay: Inhibition constant (Ki) on MMP-14h; conditions: human MMP-14
Excerpt: (§1) The inhibition constant Ki of these compounds has been determined according to the protocol described by Devel et al, 2006, J. Biol. Chem. (7).
(§2) In this table I and also in table II below, “h” corresponds to human. All of the compounds have therefore been evaluated on human MMPs.

MMP-2h = MMP-2h (Homo sapiens (Human), UniProt P08253); assay: Inhibition constant (Ki) on MMP-2h; conditions: human MMP-2
MMP-2h, sequence (P08253 110-660): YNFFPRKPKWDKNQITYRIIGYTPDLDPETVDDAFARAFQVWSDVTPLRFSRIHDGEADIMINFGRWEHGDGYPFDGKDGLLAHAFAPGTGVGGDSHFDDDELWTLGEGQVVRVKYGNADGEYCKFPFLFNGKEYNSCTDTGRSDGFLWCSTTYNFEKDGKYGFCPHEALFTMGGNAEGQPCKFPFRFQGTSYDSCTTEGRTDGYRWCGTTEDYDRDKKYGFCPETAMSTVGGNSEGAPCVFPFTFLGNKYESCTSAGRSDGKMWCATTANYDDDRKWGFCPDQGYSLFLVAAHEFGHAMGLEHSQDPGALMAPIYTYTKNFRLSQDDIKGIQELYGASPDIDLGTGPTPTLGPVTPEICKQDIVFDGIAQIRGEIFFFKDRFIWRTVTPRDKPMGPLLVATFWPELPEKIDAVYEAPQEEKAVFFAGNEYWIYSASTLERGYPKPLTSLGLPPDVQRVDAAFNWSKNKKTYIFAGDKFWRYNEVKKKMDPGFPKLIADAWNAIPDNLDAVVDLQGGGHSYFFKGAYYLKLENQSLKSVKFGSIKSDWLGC
Excerpt: as §1, §2

MMP-9h = MMP-9h (Homo sapiens (Human), UniProt P14780); assay: Inhibition constant (Ki) on MMP-9h; conditions: human MMP-9
MMP-9h, sequence (P14780 94-707): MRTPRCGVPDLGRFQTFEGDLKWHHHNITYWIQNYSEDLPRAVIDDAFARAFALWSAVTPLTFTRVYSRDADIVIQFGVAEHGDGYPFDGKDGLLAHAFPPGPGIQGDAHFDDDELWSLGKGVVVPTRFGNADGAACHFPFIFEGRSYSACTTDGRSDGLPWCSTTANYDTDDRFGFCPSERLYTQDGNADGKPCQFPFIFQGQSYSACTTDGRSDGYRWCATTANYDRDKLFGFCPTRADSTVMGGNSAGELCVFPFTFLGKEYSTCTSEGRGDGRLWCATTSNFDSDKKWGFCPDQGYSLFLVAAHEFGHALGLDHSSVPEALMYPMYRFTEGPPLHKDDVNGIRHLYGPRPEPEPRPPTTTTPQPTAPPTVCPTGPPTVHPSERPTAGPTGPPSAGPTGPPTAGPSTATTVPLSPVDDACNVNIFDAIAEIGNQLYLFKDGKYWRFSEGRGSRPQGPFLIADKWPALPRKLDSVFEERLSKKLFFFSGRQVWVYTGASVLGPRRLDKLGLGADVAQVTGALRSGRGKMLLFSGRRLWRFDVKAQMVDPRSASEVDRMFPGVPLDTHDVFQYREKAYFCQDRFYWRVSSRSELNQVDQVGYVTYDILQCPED
Excerpt: as §1, §2

MMP-12h = MMP-12h (Homo sapiens (Human), UniProt P39900); assay: Inhibition constant (Ki) on MMP-12h; conditions: human MMP-12
MMP-12h, sequence (P39900 106-470): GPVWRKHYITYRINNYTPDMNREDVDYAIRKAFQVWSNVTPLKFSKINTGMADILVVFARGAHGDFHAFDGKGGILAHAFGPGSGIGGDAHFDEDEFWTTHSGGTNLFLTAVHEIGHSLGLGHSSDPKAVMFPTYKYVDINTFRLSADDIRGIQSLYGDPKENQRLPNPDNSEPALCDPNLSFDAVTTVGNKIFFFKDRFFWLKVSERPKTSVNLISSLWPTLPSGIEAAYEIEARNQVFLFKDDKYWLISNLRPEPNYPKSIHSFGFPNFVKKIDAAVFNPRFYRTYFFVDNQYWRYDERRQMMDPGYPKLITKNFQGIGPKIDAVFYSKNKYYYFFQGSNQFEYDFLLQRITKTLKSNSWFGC

MMP-8h = MMP-8h (Homo sapiens (Human), UniProt P22894); assay: Inhibition constant (Ki) on MMP-8h; conditions: human MMP-8
MMP-8h, sequence (P22894 101-467): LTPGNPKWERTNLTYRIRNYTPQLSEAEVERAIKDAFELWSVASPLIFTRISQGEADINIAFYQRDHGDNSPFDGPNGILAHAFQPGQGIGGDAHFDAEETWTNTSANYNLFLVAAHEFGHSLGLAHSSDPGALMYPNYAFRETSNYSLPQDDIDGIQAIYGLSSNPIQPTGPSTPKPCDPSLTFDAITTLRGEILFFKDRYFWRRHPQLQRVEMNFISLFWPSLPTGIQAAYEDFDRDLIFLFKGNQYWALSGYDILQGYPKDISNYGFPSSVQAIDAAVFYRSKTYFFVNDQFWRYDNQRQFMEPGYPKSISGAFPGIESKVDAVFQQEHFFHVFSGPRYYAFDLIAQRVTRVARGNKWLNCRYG

MMP-3h = MMP-3h (Homo sapiens (Human), UniProt P08254); assay: Inhibition constant (Ki) on MMP-3h; conditions: human MMP-3
MMP-3h, sequence (P08254 100-477): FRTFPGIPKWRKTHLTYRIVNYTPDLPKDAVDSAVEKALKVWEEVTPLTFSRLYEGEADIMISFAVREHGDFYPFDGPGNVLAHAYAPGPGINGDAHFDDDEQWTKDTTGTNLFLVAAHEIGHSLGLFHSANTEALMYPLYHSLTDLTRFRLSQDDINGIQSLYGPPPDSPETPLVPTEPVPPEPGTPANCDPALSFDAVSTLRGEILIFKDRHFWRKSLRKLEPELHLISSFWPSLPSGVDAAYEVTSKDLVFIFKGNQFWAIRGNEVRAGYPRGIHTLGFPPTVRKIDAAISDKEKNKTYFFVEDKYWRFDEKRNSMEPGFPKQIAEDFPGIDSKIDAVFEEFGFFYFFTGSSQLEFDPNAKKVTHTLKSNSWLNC
Excerpt: as §1, §2

MMP-13h = MMP-13h (Homo sapiens (Human), UniProt P45452); assay: Inhibition constant (Ki) on MMP-13h; conditions: human MMP-13
Excerpt: as §1, §2

MMP-10h, sequence (P09238 99-476): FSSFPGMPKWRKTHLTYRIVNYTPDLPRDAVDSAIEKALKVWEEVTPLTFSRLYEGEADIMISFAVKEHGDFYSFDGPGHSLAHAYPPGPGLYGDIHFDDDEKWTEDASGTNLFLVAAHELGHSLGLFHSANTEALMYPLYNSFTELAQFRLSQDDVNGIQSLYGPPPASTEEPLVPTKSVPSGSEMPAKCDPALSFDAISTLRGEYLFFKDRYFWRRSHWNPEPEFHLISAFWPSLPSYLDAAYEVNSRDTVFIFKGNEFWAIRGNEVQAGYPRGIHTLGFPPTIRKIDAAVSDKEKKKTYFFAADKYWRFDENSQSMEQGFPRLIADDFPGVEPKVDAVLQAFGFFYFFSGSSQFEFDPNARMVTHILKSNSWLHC

Row | SMILES | Ki (MMP-10h; read-out: Ki MMP-10h) [nM] | Ki (MMP-14h; read-out: Ki MMP-14h) [nM] | Ki (MMP-2h; read-out: Ki MMP-2h) [nM] | Ki (MMP-9h; read-out: Ki MMP-9h) [nM] | Ki (MMP-12h; read-out: Ki MMP-12h) [nM] | Ki (MMP-8h; read-out: Ki MMP-8h) [nM] | Ki (MMP-3h; read-out: Ki MMP-3h) [nM] | Ki (MMP-13h; read-out: Ki MMP-13h) [nM] | Ki (MMP-10h) [nM] | Ki (MMP-14h) [nM] | Ki (MMP-2h) [nM] | Ki (MMP-9h) [nM] | Ki (MMP-12h) [nM] | Ki (MMP-8h) [nM] | Ki (MMP-3h) [nM] | Ki (MMP-13h) [nM]
1 | NC(=O)[C@H](CCC(=O)O)NC(=O)CCc1cc(-c2ccccc2)no1 [Compound 15, (S)-5-amino-5-oxo-4-(3-(3-phenylisoxazol-5-yl)propanamido)pentanoic acid] | > 5000 | > 1000 | 762 | > 1000 | 398 | 114 | > 10000 | > 1000 | – | – | – | – | – | – | – | –
2 | NC(=O)[C@H](CC(=O)O)NC(=O)[C@H](CCC(=O)O)NC(=O)CCc1ccc(-c2ccccc2)cc1 [Compound 45, (S)-5-((S)-1-amino-3-carboxy-1-oxopropan-2-ylamino)-4-(3-(biphenyl-4-yl)propanamido)-5-oxopentanoic acid] | > 1000 | > 5000 | 896 | > 1000 | 37 | 233 | > 5000 | > 1000 | – | – | – | – | – | – | – | –
3 | NC(=O)[C@H](CC(=O)O)NC(=O)[C@H](CC(=O)O)NC(=O)CCc1cc(-c2ccc(-c3cccc(Cl)c3)cc2)no1 [Compound 10, (S)-4-amino-3-((S)-3-carboxy-2-(3-(3-(3′-chlorobiphenyl-4-yl)isoxazol-5-yl)propanamido)propanamido)-4-oxobutanoic acid] | 93 | > 1000 | 86 | > 1000 | 59 | 649 | 85 | 18 | – | – | – | – | – | – | – | –
4 | NC(=O)CC[C@H](NC(=O)[C@H](CCC(=O)O)NC(=O)CCc1cc(-c2ccc(-c3ccccc3)cc2)no1)C(N)=O [Compound 21, (S)-4-(3-(3-(biphenyl-4-yl)isoxazol-5-yl)propanamido)-5-((S)-1,5-diamino-1,5-dioxopentan-2-ylamino)-5-oxopentanoic acid] | 256 | > 1000 | 39.3 | > 1000 | 5.4 | 261 | 105 | 49 | – | – | – | – | – | – | – | –
5 | NC(=O)[C@H](CCC(=O)O)NC(=O)[C@H](CCC(=O)O)NC(=O)CCc1ccc(-c2csnn2)cc1 [Compound 35, (S)-4-(3-(4-(1,2,3-thiadiazol-4-yl)phenyl)propanamido)-5-((S)-1-amino-4-carboxy-1-oxobutan-2-ylamino)-5-oxopentanoic acid] | – | – | – | – | – | – | – | – | 679 | 438 | 442 | 199 | 158 | 231 | 281 | 212
6 | CC(C)C[C@H](NC(=O)[C@H](CCC(=O)O)NC(=O)CCc1ccc(-c2ccc(-c3ccccc3)cc2)cc1)C(N)=O [Compound 69, (S)-5-((S)-1-amino-4-methyl-1-oxopentan-2-ylamino)-4-(3-(4′-phenylbiphenyl-4-yl)propanamido)-5-oxopentanoic acid] | 382 | > 5000 | 332 | > 1000 | 7.8 | 567 | 258 | 81 | – | – | – | – | – | – | – | –
7 | NC(=O)[C@H](Cc1c[nH]cn1)NC(=O)[C@H](CCC(=O)O)NC(=O)CCc1ccc(-c2ccc(-c3ccccc3)cc2)cc1 [Compound 67, (S)-5-((S)-1-amino-3-(1H-imidazol-4-yl)-1-oxopropan-2-ylamino)-4-(3-(4′-phenylbiphenyl-4-yl)propanamido)-5-oxopentanoic acid] | 168 | > 1000 | 68 | > 1000 | 10.2 | 526 | 337 | 36 | – | – | – | – | – | – | – | –
8 | NC(=O)[C@H](CCC(=O)O)NC(=O)[C@H](Cc1c[nH]cn1)NC(=O)CCc1ccc(-c2ccc(-c3ccccc3)cc2)cc1 [Compound 77, (S)-4-((S)-3-(1H-imidazol-4-yl)-2-(3-(4′-phenylbiphenyl-4-yl)propanamido)propanamido)-5-amino-5-oxopentanoic acid] | > 5000 | > 10000 | > 1000 | > 50000 | 234 | > 1000 | > 1000 | 377 | – | – | – | – | – | – | – | –
9 | C[C@H](NC(=O)[C@H](CCC(=O)O)NC(=O)CCc1ccc(-c2cccs2)cc1)C(N)=O [Compound 85, (S)-5-((S)-1-amino-1-oxopropan-2-ylamino)-5-oxo-4-(3-(4-(thiophen-2-yl)phenyl)propanamido)pentanoic acid] | 835 | > 1000 | 348 | > 5000 | 25.6 | 62 | > 10000 | > 1000 | – | – | – | – | – | – | – | –
10 | NC(=O)[C@H](CCC(=O)O)NC(=O)[C@H](CC(=O)O)NC(=O)CCc1cc(-c2ccc(-c3ccccc3)cc2)no1 [Compound 17, (S)-5-amino-4-((S)-2-(3-(3-(biphenyl-4-yl)isoxazl-5-yl)propanamido)-3-carboxypropanamido)-5-oxopentanoic acid] | > 1000 | > 5000 | 65 | > 1000 | 53 | > 1000 | 699 | 36 | – | – | – | – | – | – | – | –
11 | Cn1ccc(-c2ccc(CCC(=O)N[C@@H](CCC(=O)O)C(=O)N[C@@H](CCC(=O)O)C(N)=O)cc2)n1 [Compound 33, (S)-5-amino-4-((S)-4-carboxy-2-(3-(4-(1-methyl-1H-pyrazol-3-yl)phenyl)propanamido)butanamido)-5-oxopentanoic acid] | > 10000 | > 1000 | > 1000 | > 1000 | 797 | > 1000 | > 10000 | 518 | – | – | – | – | – | – | – | –
12 | NC(=O)[C@H](CCCC(=O)O)NC(=O)[C@H](CCC(=O)O)NC(=O)CCc1cc(-c2ccc(-c3cccc(Cl)c3)cc2)no1 [Compound 12, (S)-6-amino-5-((S)-4-carboxy-2-(3-(3-(3′-chlorobiphenyl-4-yl)isoxazol-5-yl)propanamido)butanamido)-6-oxohexanoic acid] | 51 | > 5000 | 150 | > 1000 | 8.2 | 452 | 129 | 52 | – | – | – | – | – | – | – | –
13 | NCCCC[C@H](NC(=O)[C@H](CCC(=O)O)NC(=O)CCc1ccc(-c2ccccc2)cc1)C(N)=O [Compound 44, (S)-4-(3-(biphenyl-4-yl)propanamido)-5-((S)-1,6-diamino-1-oxohexan-2-ylamino)-5-oxopentanoic acid] | > 5000 | > 5000 | > 1000 | > 5000 | 119 | 414 | > 10000 | > 1000 | – | – | – | – | – | – | – | –
14 | NC(=O)[C@H](CC(=O)O)NC(=O)[C@H](CCC(=O)O)NC(=O)CCc1cc(-c2ccc(-c3ccccc3)cc2)no1 [Compound 18, (S)-5-((S)-1-amino-3-carboxy-1-oxopropan-2-ylamino)-4-(3-(3-(biphenyl-4-yl)isoxazol-5-yl)propanamido)-5-oxopentanoic acid] | – | – | – | – | – | – | – | – | 196 | > 1000 | 93 | > 1000 | 8 | 832 | 440 | 30
15 | NC(=O)[C@H](CCC(=O)O)NC(=O)[C@H](CCC(=O)O)NC(=O)CCc1ccc(-c2ncccn2)cc1 [Compound 32, (S)-5-amino-4-((S)-4-carboxy-2-(3-(4-(pyrimidin-2-yl)phenyl)propanamido)butanamido)-5-oxopentanoic acid] | > 5000 | > 1000 | > 5000 | > 1000 | 969 | > 1000 | > 1000 | 641 | – | – | – | – | – | – | – | –
16 | C[C@H](NC(=O)CCc1ccc(-c2ccc(-c3ccccc3)cc2)cc1)C(=O)N[C@@H](CCC(=O)O)C(N)=O [Compound 76, (S)-5-amino-4-((S)-2-(3-(4′-phenylbiphenyl-4-yl)propanamido)propanamido)-5-oxopentanoic acid] | > 10000 | > 5000 | 854 | > 5000 | 251 | > 1000 | 142 | 427 | – | – | – | – | – | – | – | –
17 | NC(=O)[C@H](CO)NC(=O)[C@H](CCC(=O)O)NC(=O)CCc1ccc(-c2cccs2)cc1 [Compound 87, (S)-5-((S)-1-amino-3-hydroxy-1-oxopropan-2-ylamino)-5-oxo-4-(3-(4-(thiophen-2-yl)phenyl)propanamido)pentanoic acid] | 742 | > 1000 | 147 | > 1000 | 16.4 | 47 | > 10000 | > 1000 | – | – | – | – | – | – | – | –
18 | NC(=O)[C@H](CCC(=O)O)NC(=O)[C@H](CC(=O)O)NC(=O)CCc1ccc(-c2ccc(-c3ccccc3)cc2)cc1 [Compound 74, (S)-5-amino-4-((S)-3-carboxy-2-(3-(4′-phenylbiphenyl-4-yl)propanamido)propanamido)-5-oxopentanoic acid] | 430 | > 1000 | 39 | > 1000 | 10.5 | 865 | 16 | 13.5 | – | – | – | – | – | – | – | –
